Reference: EP1698638A1, “Lipopeptides having pharmaceutical activity” (Technische Universität Berlin, priority 2005, dated 2006)

Columns and labels:
Candida albicans [1] = test: serial dilution test, minimum inhibitory concentration (MIC); type: cell-based; conditions: RPMI-1640 medium, 35 °C, 24 h
Description: (§1) The antifungal activity of the compounds according to the present invention, in particular hassallidin A and hassallidin B, was verified for Aspergillus fumigatus and Candida albicans by minimum inhibitory concentration (MIC) data in a serial dilution test. For each fungus six testing wells of a microtiter plate were prepared with 240 µL medium (Sigma RPMI-1640), 10 µL inoculum suspension and 50 µL fungicide solution (50% MeOH) of different concentrations. Inoculum preparation was carried out by guideline of NCCLS.^25 The fungicide solution preparation took place in a series of twofold dilutions from a stock solution of 92 µg/mL starting with 4.6 µg/50 µL down to 0.14 µg/50 µL. One well was prepared without antifungal agent for unhindered growth as control. The microtiter plates were incubated for Candida albicans and Aspergillus fumigatus at 35 °C for 24 h and 48 h, respectively. Tests were run in triplicates. Inhibition of growth was assessed by comparing the fungal growth of the test samples with the control well by determination of optical density at 595 nm in a microplate reader. The concentration of the well at highest dilution that was still free from growth was assigned the minimum inhibitory concentration (MIC in µg/mL). […] No activities were observed by using Bacillus subtilis, Streptomyces versicolor or Escherchia coli in disk diffusion assays on LB-agar plates with 10 µg hassallidin A in 30 µL 50% MeOH per disk.

Aspergillus fumigatus [2] = test: as above; type: cell-based; conditions: RPMI-1640 medium, 35 °C, 48 h
Description: as §1

Aspergillus niger = test: disk diffusion assay on malt agar plates; type: cell-based; conditions: 10 µg in 30 µL 50% MeOH per disk
Fusarium sambucium = test: disk diffusion assay on malt agar plates; type: cell-based; conditions: 10 µg in 30 µL 50% MeOH per disk
Candida albicans [3] = test: disk diffusion assay on malt agar plates; type: cell-based; conditions: 10 µg in 30 µL 50% MeOH per disk
ATCC 6258 (QC) = test: microdilution assay (NCCLS), inhibitory concentration (IC); type: cell-based, Candida krusei
Description: (§2) More specifically, a determination of inhibitory concentration (IC) of hassallidin A and hassallidin B for various fungi, Candida species and Candida strains were performed with different media (RPMI-1640 or SAB or AM3) in a microdilution assay by following the guidelines in NCCLS documents M^38-P^25 and M27-A2^26 carried out as follows Each substance was dissolved with 100% dimethyl sulfoxide (Serva, Heidelberg, Germany) to give a stock solution of 3.2 mg/ml followed by nine log2 dilution steps with the solvent. This served as a 100-fold concentrated dilution series ranging from 1.6 mg/ml to 0.003 mg/ml of the test substance. The final concentration of the test substance was 16 µg/ml to 0.031 µg/ml.
(§3) Therefore the 100-fold concentrated dilution series (with 100% DMSO) was diluted to the final concentration by two dilution steps: • (1) Each concentration of the 100-fold concentrated substance was diluted with test medium for 1:50 (for ex.: adding of 13 µl of the test substance to 637 µl test medium). • (2) 100 µl of each 1:50 diluted concentration was filled in a row of wells of a microtitre plate. One well was without the substance but with the 1:50 diluted solvent serving as growth control.
(§4) A further 1:2 dilution of the antifungal was made by the inoculation of each well with 100 µl of the test organism, which was suspended in the test medium. The remaining well of the row was used for sterility control of the medium. The inoculum was strictly prepared according the NCCLS^25 guidelines, resulting in […] for Candida-species and Cryptococcus neoformans. For hyphomycetes CFU's were tenfold higher (see NCCLS). ^26 The growth of the hyphomycetes respectively the inhibition was measured by visual reading with the help of a reading mirror; scoring was done according to NCCLS :^26 score 0 corresponds to a optical clear well or an IC95 or higher, score 1 corresponds to an inhibition of 80 percent (IC80) and the score 2 of the NCCLS definition corresponds to the IC50 values in the tables. The growth of the yeasts was measured spectrophotometrically by a microplate reader (MR 5000, Dynatech laboratories) at 630 nm displaying the optical density (OD). The percent inhibition IC50, IC80 or IC95 (corresponding the scores of 2, 1 and 0) was calculated by the following formula: (100−[(ODof the well−ODof the medium)] × 100)/((ODof the growth control−ODof the medium).) [formula] Table 3. Test series for determining IC values of hassallidin A and B in different media using Candida albicans and Candida krusei. The IC values were measured after 24 h and 48 h at 30 °C.

Candida glabrata = test: disk diffusion assay on malt agar plates; type: cell-based; conditions: 10 µg in 30 µL 50% MeOH per disk
Candida albicans SC 5314 = test: microdilution assay (NCCLS), inhibitory concentration (IC); type: cell-based
Description: as §2, §3, §4

Penicillium sp. = test: disk diffusion assay on malt agar plates; type: cell-based; conditions: 10 µg in 30 µL 50% MeOH per disk
Ustilago maydis = test: disk diffusion assay on malt agar plates; type: cell-based; conditions: 10 µg in 30 µL 50% MeOH per disk
Aspergillus fumigatus [4] = test: disk diffusion assay on malt agar plates; type: cell-based; conditions: 10 µg in 30 µL 50% MeOH per disk
[5] = Table 3 series, RPMI, 30 °C, 24h
[6] = Table 3 series, RPMI, 30 °C, 48h
[7] = Table 4 series, RPMI-1640 medium, 30°C/24h
[8] = Table 4 series, RPMI-1640 medium, 30°C/48h
[9] = Table 4 series, RPMI-1640 medium, 35°C/24h
[10] = Table 4 series, RPMI-1640 medium, 35°C/48h
[11] = Table 3 series, AM3, 30 °C, 24h
[12] = Table 3 series, AM3, 30 °C, 48h
[13] = Table 3 series, SAB, 30 °C, 24h
[14] = Table 3 series, SAB, 30 °C, 48h

hassallidin A was tested, and the MIC (Candida albicans [1]) was 4.8 µg/mL, the MIC (Aspergillus fumigatus [2]) was 4.8 µg/mL and the “antifungal activity in disk diffusion assay” value (“antifungal activity” below) (Aspergillus niger) was “precise antifungal activity”. For the same substance, the “antifungal activity” value (Fusarium sambucium) was “precise antifungal activity”, the “antifungal activity” value (Candida albicans [3]) was “precise antifungal activity” and the IC50 (ATCC 6258 (QC); [5]) was 16 µg/mL. The IC80 (ATCC 6258 (QC); [5]) was 16 µg/mL, the IC95 (ATCC 6258 (QC); [5]) was 16 µg/mL and the IC50 (ATCC 6258 (QC); [6]) was 16 µg/mL. The IC80 (ATCC 6258 (QC); [6]) was 16 µg/mL, the IC95 (ATCC 6258 (QC); [6]) was 16 µg/mL and the IC50 (ATCC 6258 (QC); [7]) was 8 µg/mL. It also gave an IC80 (ATCC 6258 (QC); [7]) of 8 µg/mL, an IC95 (ATCC 6258 (QC); [7]) of 8 µg/mL and an IC50 (ATCC 6258 (QC); [8]) of 8 µg/mL. The IC80 (ATCC 6258 (QC); [8]) was 8 µg/mL, the IC95 (ATCC 6258 (QC); [8]) was 8 µg/mL and the IC50 (ATCC 6258 (QC); [9]) was 8 µg/mL. The IC50 (ATCC 6258 (QC); [10]) was 16 µg/mL, the IC95 (ATCC 6258 (QC); [10]) was 16 µg/mL and the “antifungal activity” value (Candida glabrata) was “precise antifungal activity”. For the same substance, the IC50 (Candida albicans SC 5314; [11]) was 4 µg/mL, the IC80 (Candida albicans SC 5314; [11]) was 4 µg/mL and the IC95 (Candida albicans SC 5314; [11]) was 4 µg/mL. It also gave an IC50 (Candida albicans SC 5314; [12]) of 8 µg/mL, an IC80 (Candida albicans SC 5314; [12]) of 8 µg/mL and an IC95 (Candida albicans SC 5314; [12]) of 8 µg/mL. The IC50 (Candida albicans SC 5314; [5]) was 16 µg/mL, the IC80 (Candida albicans SC 5314; [5]) was 16 µg/mL and the IC95 (Candida albicans SC 5314; [5]) was 16 µg/mL. It also gave an IC50 (Candida albicans SC 5314; [6]) of 16 µg/mL, an IC80 (Candida albicans SC 5314; [6]) of 16 µg/mL and an IC95 (Candida albicans SC 5314; [6]) of 16 µg/mL. For the same substance, the IC50 (Candida albicans SC 5314; [13]) was 4 µg/mL, the IC80 (Candida albicans SC 5314; [13]) was 4 µg/mL and the IC95 (Candida albicans SC 5314; [13]) was 4 µg/mL. The IC50 (Candida albicans SC 5314; [14]) was 8 µg/mL, the IC80 (Candida albicans SC 5314; [14]) was 8 µg/mL and the IC95 (Candida albicans SC 5314; [14]) was 8 µg/mL. It also gave an IC50 (Candida albicans SC 5314; [9]) of 8 µg/mL, an IC80 (Candida albicans SC 5314; [9]) of 8 µg/mL and an IC95 (Candida albicans SC 5314; [9]) of 8 µg/mL. For the same substance, the IC50 (Candida albicans SC 5314; [10]) was 8 µg/mL, the IC80 (Candida albicans SC 5314; [10]) was 8 µg/mL and the IC95 (Candida albicans SC 5314; [10]) was 8 µg/mL. The “antifungal activity” value (Penicillium sp.) was “precise antifungal activity”, the “antifungal activity” value (Ustilago maydis) was “precise antifungal activity” and the “antifungal activity” value (Aspergillus fumigatus [4]) was “precise antifungal activity”.

For hassallidin B, the MIC (Candida albicans [1]) was 4.8 µg/mL, the MIC (Aspergillus fumigatus [2]) was 4.8 µg/mL and the “antifungal activity” value (Aspergillus niger) was “precise antifungal activity”. For the same substance, the “antifungal activity” value (Fusarium sambucium) was “precise antifungal activity”, the “antifungal activity” value (Candida albicans [3]) was “precise antifungal activity” and the IC50 (ATCC 6258 (QC); [5]) was 16 µg/mL. The IC80 (ATCC 6258 (QC); [5]) was 16 µg/mL, the IC95 (ATCC 6258 (QC); [5]) was 16 µg/mL and the IC50 (ATCC 6258 (QC); [6]) was 16 µg/mL. The IC80 (ATCC 6258 (QC); [6]) was 16 µg/mL, the IC95 (ATCC 6258 (QC); [6]) was 16 µg/mL and the “antifungal activity” value (Candida glabrata) was “precise antifungal activity”. It also gave an IC50 (Candida albicans SC 5314; [11]) of 4 µg/mL, an IC80 (Candida albicans SC 5314; [11]) of 4 µg/mL and an IC95 (Candida albicans SC 5314; [11]) of 4 µg/mL. It also gave an IC50 (Candida albicans SC 5314; [12]) of 8 µg/mL, an IC80 (Candida albicans SC 5314; [12]) of 8 µg/mL and an IC95 (Candida albicans SC 5314; [12]) of 8 µg/mL. It also gave an IC50 (Candida albicans SC 5314; [5]) of 16 µg/mL, an IC80 (Candida albicans SC 5314; [5]) of 16 µg/mL and an IC95 (Candida albicans SC 5314; [5]) of 16 µg/mL. The IC50 (Candida albicans SC 5314; [6]) was 16 µg/mL, the IC80 (Candida albicans SC 5314; [6]) was 16 µg/mL and the IC95 (Candida albicans SC 5314; [6]) was 16 µg/mL. The IC50 (Candida albicans SC 5314; [13]) was 8 µg/mL, the IC80 (Candida albicans SC 5314; [13]) was 8 µg/mL and the IC95 (Candida albicans SC 5314; [13]) was 8 µg/mL. For the same substance, the IC50 (Candida albicans SC 5314; [14]) was 8 µg/mL, the IC80 (Candida albicans SC 5314; [14]) was 8 µg/mL and the IC95 (Candida albicans SC 5314; [14]) was 8 µg/mL. For the same substance, the “antifungal activity” value (Penicillium sp.) was “precise antifungal activity”, the “antifungal activity” value (Ustilago maydis) was “precise antifungal activity” and the “antifungal activity” value (Aspergillus fumigatus [4]) was “precise antifungal activity”.
